Patent publication US9102617B2, “Antimicrobial agents” (Rutgers, The State University of New Jersey, priority 2010, dated 2015)
Converted amounts (≈) assume the structure as drawn.

Experiments:
[1] = test system: methicillin-sensitive Staphylococcus aureus (MSSA); test: Planktonic antibacterial broth microdilution assay (Test C), MIC vs MSSA; assay type: cell-based; conditions: 37° C., growth read after 24 to 48 hours at OD 600 nm
Experimental: (§1) Test C. Planktonic (Free-Living) Antibacterial Assay.
(§2) Planktonic antibacterial activity can be determined using a broth microdilution assay in which log-phase bacteria are grown at 37° C. in appropriate medium containing two-fold serial dilutions of a compound to yield a final concentration ranging from 256 to 0.1 μg/ml. For determination of minimal inhibitory concentration (MIC) values, bacterial growth is monitored after 24 to 48 hours by measuring optical density at 600 nm. […] The minimal inhibitory concentration against methicillin-sensitive Staphylococcus aureus (MSSA) for each of the following representative compounds of the invention was determined to be less than 32 μg/ml.

[2] = test system: methicillin-resistant Staphylococcus aureus (MRSA); test: Planktonic antibacterial broth microdilution assay (Test C), MIC vs MRSA; assay type: cell-based; conditions: broth microdilution, 37° C., growth read after 24 to 48 hours at OD 600 nm, read-out: MIC vs MRSA
Experimental: as §1, §2
Representative compounds of the invention were also tested against methicillin-resistant Staphylococcus aureus, vancomycin-resistant Enterococcus faecalis and Enterococcus faecium (VRE), vancomycin-sensitive Enterococcus faecalis and Enterococcus faecium (VSE).

Compound | MIC [1] [µg/mL] | MIC [2] [µg/mL]
C[n+]1c(-c2ccccc2)ccc2ccccc21.[I-] [Comparative Example B, reference compound] | > 64 | –
CC(C)(C)c1ccc(-c2cccc3cc(-c4cccc([N+](C)(C)C)c4)ccc23)cc1.[I-] [Example 65] | ≤ 8 | –
C[n+]1cccc2ccccc21.[I-] [Comparative Example A, reference compound] | > 64 | –
CNCc1ccccc1-c1ccc2c(-c3ccc(C(C)(C)C)cc3)cccc2c1 [Example 61] | ≤ 8 | ≤ 8
COc1cc(-c2cc3cc4c(cc3[n+](C)c2)OCO4)cc(-c2ccc(C(C)(C)C)cc2)c1OC.[I-] [Example 26a] | ≤ 8 | –
COc1ccc(CNC(=N)N)c(-c2ccc3c(-c4ccc(C(C)(C)C)cc4)cccc3c2)c1OC [Example 102] | ≤ 8 | –
COc1cc(-c2cc3ccc(OC)c(OC)c3[n+](C)c2)cc(-c2ccc(C(C)(C)C)cc2)c1OC.[I-] [Example 30] | ≤ 8 | –
CN(C)Cc1cc(C(=O)O)ccc1-c1ccc2c(-c3ccc(C(C)(C)C)cc3)cccc2c1.Cl [Example 85] | ≤ 8 | –
COc1cc(C(F)(F)F)ccc1-c1cccc2c(CCN)cccc12 [Example 44, 2-(5-(2-Methoxy-4-(trifluoromethyl)phenyl)naphthalen-1-yl)ethanamine] | ≤ 8 | –
COc1ccc(-c2ccc3c(-c4ccc(C(C)(C)C)cc4)cccc3c2CNC(=N)N)c(OC)c1OC [Example 58] | ≤ 8 | –
COc1cc(C(F)(F)F)ccc1-c1cccc2c(CN=C(N)N)cccc12 [Example 43] | ≤ 8 | –
COc1cc(-c2cc3ccccc3[n+](C)c2)cc(-c2ccc(C(C)(C)C)cc2)c1OC.[I-] [Example 11] | ≤ 8 | ≤ 8
C[N+](C)(C)c1cccc(-c2ccc3c(-c4cccc(-c5ccccc5)c4)cccc3c2)c1.[I-] [Example 67] | ≤ 8 | –
COC(=O)c1ccc(-c2ccc3c(-c4ccc(C(C)(C)C)cc4)cccc3c2)c(CN)c1 [Example 89, methyl 4-(1-(4-t-butylphenyl)naphthalen-6-yl)-3-(aminomethyl)benzoate] | ≤ 8 | –
COc1cc(-c2cc3ccccc3nc2CN)cc(-c2ccc(C(C)(C)C)cc2)c1OC [Example 31] | ≤ 8 | –
N=C(N)NCc1ccccc1-c1ccc2c(-c3cccc(-c4ccccc4)c3)cccc2c1 [Example 105] | ≤ 8 | –
CC(C)(C)c1ccc(-c2cccc(-c3cccc4cc(-c5cccc([N+](C)(C)C)c5)ccc34)c2)cc1.[I-] [Example 78] | ≤ 8 | –
CCC[n+]1cc(-c2cc(OC)c(OC)c(-c3ccc(C4CCCCC4)cc3)c2)cc2cc(OC)c(OC)cc21.[I-] [Example 22] | ≤ 8 | –
CN(C)Cc1ccccc1-c1ccc2c(-c3ccc(C(C)(C)C)cc3)cccc2c1 [Example 60, (2-(1-(4-t-butylphenyl)naphthalen-6-yl)phenyl)-N,N-dimethylmethanamine] | 32 (≈ 81.3 µM) | –
CC(C)(C)c1ccc(-c2cccc3cc(-c4ccc(C(=O)O)cc4CN)ccc23)cc1.Cl [Example 88] | > 64 | –
CC(C)(C)c1ccc(-c2ccc(CN=C(N)N)c3ccccc23)cc1 [Example 40] | ≤ 8 | –

Compound | MIC [1] [µg/mL] | MIC [2] [µg/mL]
CN(C)Cc1cccc(-c2ccc3c(-c4cccc(-c5ccccc5)c4)cccc3c2)c1 [Example 71] | ≤ 8 | –
C[n+]1cc(-c2cc(F)c(F)c(-c3ccc(-c4ccccc4)cc3)c2)cc2ccccc21.[I-] [Example 33] | ≤ 8 | –
CNCc1cc(C(=O)O)ccc1-c1ccc2c(-c3ccc(C(C)(C)C)cc3)cccc2c1.Cl [Example 87] | ≤ 8 | –
COc1cc2cc(-c3cc(OC)c(OC)c(-c4ccc(-c5ccccc5)cc4)c3)c[n+](C)c2cc1OC.[I-] [Example 13] | ≤ 8 | –
COC(=O)c1ccc(-c2ccc3c(-c4ccc(C(C)(C)C)cc4)cccc3c2)c(CNC(=N)N)c1 [Example 101] | ≤ 8 | –
C[N+](C)(C)c1cccc(-c2ccc3c(-c4cccc(-c5ccc(C(F)(F)F)cc5)c4)cccc3c2)c1.[I-] [Example 80] | ≤ 8 | –
C[N+](C)(C)c1cccc(-c2ccc3c(-c4ccc(-c5ccccc5)cc4)cccc3c2)c1.[I-] [Example 93] | ≤ 8 | –
CCC[n+]1cc(-c2cc(OC)c(OC)c(-c3ccc(-c4ccccc4)cc3)c2)cc2cc(OC)c(OC)cc21.[I-] [Example 14] | ≤ 8 | –
COc1cc(C(F)(F)F)ccc1-c1cccc2c(CCN=C(N)N)cccc12 [Example 45] | ≤ 8 | –
CC(C)(C)c1ccc(-c2cccc3cc(-c4ccc([N+](C)(C)C)cc4)ccc23)cc1.[I-] [Example 100] | ≤ 8 | –
COc1cc(-c2cc3ccccc3[n+](C)c2)cc(-c2cccc(-c3ccc(F)cc3)c2)c1OC.[I-] [Example 6] | ≤ 8 | –
CC(C)(C)c1ccc(-c2cccc3c(CCN)cccc23)cc1 [Example 36] | ≤ 8 | ≤ 8
COc1cc(-c2cc3ccccc3[n+](C)c2)cc(-c2cc(-c3ccc(F)cc3)cc(-c3ccc(F)cc3)c2)c1OC.[I-] [Example 8] | ≤ 8 | –
NCc1cccc(-c2ccc3c(-c4cccc(-c5ccccc5)c4)cccc3c2)c1 [Example 70] | ≤ 8 | ≤ 8
C[N+](C)(C)c1ccc(-c2ccc3c(-c4ccc(F)cc4)cccc3c2)cc1.[I-] [Example 76] | ≤ 8 | –
C[N+](C)(C)Cc1cccc(-c2ccc3c(-c4cccc(-c5ccccc5)c4)cccc3c2)c1.[I-] [Example 72] | ≤ 8 | –
C[n+]1cccc2cccc(-c3ccc(-c4ccccc4)cc3)c21.[I-] [Example 118] | 16 | –
COc1cc2cc(-c3cc(OC)c(OC)c(-c4ccc(C(C)(C)C)cc4)c3)c[n+](C)c2cc1OC.[I-] [Example 16] | ≤ 8 | –
COc1cc(-c2cc3ccccc3[n+](C)c2)cc(-c2ccc(F)cc2)c1OC.[I-] [Example 4] | 16 | –
C[N+](C)(C)c1cccc(-c2ccc3c(-c4ccc(F)cc4)cccc3c2)c1.[I-] [Example 74] | ≤ 8 | –

Now from value to molecule:

MIC [1] [µg/mL] | MIC [2] [µg/mL] | Compound
≤ 8 | – | CC(C)(C)c1ccc(-c2ccc(CCN=C(N)N)c3ccccc23)cc1 [Example 39]
≤ 8 | – | COc1c(CCN)ccc(-c2ccc3c(-c4ccc(C(C)(C)C)cc4)cccc3c2)c1OC.Cl [Example 106]
≤ 8 | – | COc1cc2cc(-c3cc(OC)c(OC)c(-c4ccc(C5CCCCC5)cc4)c3)c[n+](C)c2cc1OC.[I-] [Example 21]
≤ 8 | – | N=C(N)NCCc1cccc2c(-c3ccc(C(F)(F)F)cc3)cccc12 [Example 55]
≤ 8 | – | COc1cc(-c2cc3cc4c(cc3[n+](C(C)C)c2)OCO4)cc(-c2ccc(-c3ccccc3)cc2)c1OC.[I-] [Example 25]
≤ 8 | – | COc1cc(-c2cc3ccccc3[n+](C)c2)cc(-c2ccc(-c3ccccc3)cc2)c1OC.[I-] [Example 2]
≤ 8 | – | NC(N)=NCc1cccc2c(-c3ccc(C4CC4)cc3)cccc12 [Example 46]
≤ 8 | – | N=C(N)NCc1cccc2c(-c3ccc(Cl)cc3)cccc12 [Example 52]
≤ 8 | – | COC(=O)c1ccc(-c2ccc3c(-c4ccc(C(C)(C)C)cc4)cccc3c2)c(C[N+](C)(C)C)c1.[I-] [Example 84]
≤ 8 | ≤ 8 | C[n+]1cc(-c2cc(-c3ccccc3)cc(-c3ccccc3)c2)cc2ccccc21.[I-] [Example 35]
≤ 8 | – | C[N+](C)(C)c1ccc(-c2ccc3c(-c4ccc(-c5ccccc5)cc4)cccc3c2)cc1.[I-] [Example 95]
≤ 8 | – | C[N+](C)(C)c1cccc(-c2ccc3c(-c4ccc(C(F)(F)F)cc4)cccc3c2)c1.[I-] [Example 97]
≤ 8 | – | N=C(N)NCc1cccc2c(-c3ccc(C(F)(F)F)cc3)cccc12 [Example 53]
≤ 8 | – | C[N+](C)(C)c1cccc(-c2ccc3c(-c4cc(-c5ccc(F)cc5)cc(-c5ccc(F)cc5)c4)cccc3c2)c1.[I-] [Example 82]
≤ 8 | ≤ 8 | CC(C)(C)c1ccc(-c2cccc3c(CCN=C(N)N)cccc23)cc1 [Example 37]
≤ 8 | ≤ 8 | CC(C)(C)c1ccc(-c2cccc3c(CC(=N)N)cccc23)cc1 [Example 56]
≤ 8 | – | CNCc1cc(C(=O)OC)ccc1-c1ccc2c(-c3ccc(C(C)(C)C)cc3)cccc2c1 [Example 86, methyl 4-(1-(4-t-butylphenyl)naphthalen-6-yl)-3-((methylamino)methyl)benzoate]
≤ 8 | – | Cc1cc(C(F)(F)F)ccc1-c1cccc2c(CN=C(N)N)cccc12 [Example 47]
≤ 8 | – | C[N+](C)(C)c1ccc(-c2ccc3c(-c4cccc(-c5ccccc5)c4)cccc3c2)cc1.[I-] [Example 69]
≤ 8 | – | COc1cc(CC(=N)N)c(-c2ccc3c(-c4ccc(C(C)(C)C)cc4)cccc3c2)cc1OC [Example 103]
≤ 8 | – | N=C(N)NCc1cccc2c(-c3ccc(Br)cc3)cccc12 [Example 51, 1-((5-(4-bromophenyl)naphthalen-1-yl)methyl)guanidine]
≤ 8 | – | C[n+]1cccc2c(-c3ccc(-c4ccccc4)cc3)cccc21.[I-] [Example 122]
≤ 8 | – | COc1cc(-c2cc3ccc(OC)c(OC)c3[n+](C)c2)cc(-c2cccc(C(C)(C)C)c2)c1OC.[I-] [Example 28]
≤ 8 | – | CC(C)(C)c1ccc(-c2ccc(CCN)c3ccccc23)cc1 [Example 38, 2-(4-(4-(t-butyl)phenyl)naphthalen-1-yl)ethanamine]
≤ 8 | – | C[n+]1cc(-c2ccc(-c3ccccc3)cc2)c2ccccc2c1.[I-] [Example 107]
≤ 8 | – | COc1cc2c(-c3ccc(-c4ccccc4)cc3)ccc([N+](C)(C)C)c2cc1OC.[I-] [Example 50]
